Laboratory results as given in patent US20240376099A1, “COMPOUNDS AND COMPOSITIONS AS INHIBITORS OF ENDOSOMAL TOLL-LIKE RECEPTORS” (Novartis AG, priority 2016, published 2024).

These compounds were tested against T1, TLR8 (Homo sapiens, UniProt Q9NR97) (assay: huPBMC TLR8 Antagonist IL-6 TR-FRET Assay). Details: human PBMCs stimulated with ssRNA40 1 μg/ml (DOTAP), 14-16 hrs; IL-6 TR-FRET read-out.
T1 sequence (Q9NR97 27-1041): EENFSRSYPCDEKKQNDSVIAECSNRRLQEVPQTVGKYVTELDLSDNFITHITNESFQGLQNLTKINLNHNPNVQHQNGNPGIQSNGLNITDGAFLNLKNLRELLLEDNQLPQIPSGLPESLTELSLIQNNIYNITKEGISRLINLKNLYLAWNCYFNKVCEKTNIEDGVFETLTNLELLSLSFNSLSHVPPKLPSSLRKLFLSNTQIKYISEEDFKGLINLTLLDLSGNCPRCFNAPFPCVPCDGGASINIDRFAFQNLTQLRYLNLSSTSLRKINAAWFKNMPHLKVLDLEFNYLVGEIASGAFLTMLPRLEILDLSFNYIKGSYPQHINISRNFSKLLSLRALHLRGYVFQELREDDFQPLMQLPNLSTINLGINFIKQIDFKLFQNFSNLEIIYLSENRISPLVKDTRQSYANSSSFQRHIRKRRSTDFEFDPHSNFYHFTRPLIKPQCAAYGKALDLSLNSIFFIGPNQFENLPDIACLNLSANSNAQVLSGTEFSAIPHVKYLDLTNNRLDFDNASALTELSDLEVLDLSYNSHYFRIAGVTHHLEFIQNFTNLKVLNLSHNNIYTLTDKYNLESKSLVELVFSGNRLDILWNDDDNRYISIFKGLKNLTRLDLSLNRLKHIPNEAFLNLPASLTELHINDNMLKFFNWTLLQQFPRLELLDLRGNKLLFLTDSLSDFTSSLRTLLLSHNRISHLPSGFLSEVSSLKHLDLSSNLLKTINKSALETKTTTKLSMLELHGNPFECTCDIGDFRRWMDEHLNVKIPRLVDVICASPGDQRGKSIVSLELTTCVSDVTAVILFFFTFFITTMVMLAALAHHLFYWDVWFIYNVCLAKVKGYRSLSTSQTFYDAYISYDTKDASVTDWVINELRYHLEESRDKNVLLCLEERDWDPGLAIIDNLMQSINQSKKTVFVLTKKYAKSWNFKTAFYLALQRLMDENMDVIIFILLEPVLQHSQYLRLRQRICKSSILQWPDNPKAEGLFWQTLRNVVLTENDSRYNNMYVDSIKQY
Format: cell-based
Parameters: Fresh blood was collected from normal human donors; endogenous in cells; host or cells: human PBMCs from fresh donor blood
Procedure, shortened: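 Human PBMCs from fresh donor blood (150,000 cells/well) stimulated 14–16 h at 37 °C with DOTAP-complexed ssRNA40 (final 1 μg/ml for TLR8, 10 μg/mL for TLR7) or ODN2216 (final 0.3 μM, TLR9), 0.25% DMSO, ten-point 1/3 compound dilutions. Supernatant IL-6 read by HTRF (TLR8); IFNα by IFNα2b AlphaLISA (TLR7/TLR9).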

Structure (SMILES) | IC50
Cc1cc(N2CCc3c(c(C(F)(F)F)nn3CC34CCC(N)(CC3)CC4)C2)c2cnn(C)c2n1 [compound 45, 4-((5-(1,6-dimethyl-1H-pyrazolo[3,4-b]pyridin-4-yl)-3-(trifluoromethyl)-4,5,6,7-tetrahydro-1H-pyrazolo[4,3-c]pyridin-1-yl)methyl)bicyclo[2.2.2]octan-1-amine] | 630 nM
Cc1cc(N2CCc3c(c(C)nn3CC34CCC(NCC(=O)N5CCCCC5)(CC3)CC4)C2)c2cnn(C)c2n1 [compound 99, 2-((4-((5-(1,6-dimethyl-1H-pyrazolo[3,4-b]pyridin-4-yl)-3-methyl-4,5,6,7-tetrahydro-1H-pyrazolo[4,3-c]pyridin-1-yl)methyl)bicyclo[2.2.2]octan-1-yl)amino)-1-(piperidin-1-yl)ethanone] | 130 nM
Cc1cc(N2CCc3c(c(C)nn3CC34CCC(NC(=O)CN5CCCC5)(CC3)CC4)C2)c2cnn(C)c2n1 [compound 100, N-(4-((5-(1,6-dimethyl-1H-pyrazolo[3,4-b]pyridin-4-yl)-3-methyl-4,5,6,7-tetrahydro-1H-pyrazolo[4,3-c]pyridin-1-yl)methyl)bicyclo[2.2.2]octan-1-yl)-2-(pyrrolidin-1-yl)acetamide] | 15 nM
COCCNC12CCC(Cn3nc(C)c4c3CCN(c3cc(C)nc5c3cnn5C)C4)(CC1)OC2 [compound 102, 1-((5-(1,6-dimethyl-1H-pyrazolo[3,4-b]pyridin-4-yl)-3-methyl-4,5,6,7-tetrahydro-1H-pyrazolo[4,3-c]pyridin-1-yl)methyl)-N-(2-methoxyethyl)-2-oxabicyclo[2.2.2]octan-4-amine] | 366 nM
Cc1cc(N2CCc3c(c(C)nn3CC34CCC(NC(=O)CCN(C)C)(CC3)CC4)C2)c2cnn(C)c2n1 [compound 105, N-(4-((5-(1,6-dimethyl-1H-pyrazolo[3,4-b]pyridin-4-yl)-3-methyl-4,5,6,7-tetrahydro-1H-pyrazolo[4,3-c]pyridin-1-yl)methyl)bicyclo[2.2.2]octan-1-yl)-3-(dimethylamino)propanamide] | 27 nM
Cc1cc(N2CCc3c(c(C)nn3CC34CCC(NCC(=O)N5CCCC5)(CC3)CC4)C2)c2cnn(C)c2n1 [compound 106, 2-((4-((5-(1,6-dimethyl-1H-pyrazolo[3,4-b]pyridin-4-yl)-3-methyl-4,5,6,7-tetrahydro-1H-pyrazolo[4,3-c]pyridin-1-yl)methyl)bicyclo[2.2.2]octan-1-yl)amino)-1-(pyrrolidin-1-yl)ethanone] | 168 nM
Cc1cc(N2CCc3c(c(C)nn3CC34CCC(N5CCO[C@H](C)C5)(CC3)CC4)C2)c2cnn(C)c2n1 [compound 107, (R)-4-(4-((5-(1,6-dimethyl-1H-pyrazolo[3,4-b]pyridin-4-yl)-3-methyl-4,5,6,7-tetrahydro-1H-pyrazolo[4,3-c]pyridin-1-yl)methyl)bicyclo[2.2.2]octan-1-yl)-2-methylmorpholine] | 6 nM
Cc1cc(N2CCc3c(c(C)nn3CC34CCC(N5CCO[C@@H](C)C5)(CC3)CC4)C2)c2cnn(C)c2n1 [compound 109, (S)-4-(4-((5-(1,6-dimethyl-1H-pyrazolo[3,4-b]pyridin-4-yl)-3-methyl-4,5,6,7-tetrahydro-1H-pyrazolo[4,3-c]pyridin-1-yl)methyl)bicyclo[2.2.2]octan-1-yl)-2-methylmorpholine] | 16 nM
Cc1cc(N2CCc3c(c(C)nn3CC34CCC(N5C[C@@H](C)O[C@@H](C)C5)(CC3)CC4)C2)c2cnn(C)c2n1 [compound 110, (2S,6R)-4-(4-((5-(1,6-dimethyl-1H-pyrazolo[3,4-b]pyridin-4-yl)-3-methyl-4,5,6,7-tetrahydro-1H-pyrazolo[4,3-c]pyridin-1-yl)methyl)bicyclo[2.2.2]octan-1-yl)-2,6-dimethylmorpholine] | 16 nM
Cc1cc(N2CCc3c(c(C)nn3CC34CCC(N5C[C@H](C)O[C@@H](C)C5)(CC3)CC4)C2)c2cnn(C)c2n1 [compound 111, (2S,6S)-4-(4-((5-(1,6-dimethyl-1H-pyrazolo[3,4-b]pyridin-4-yl)-3-methyl-4,5,6,7-tetrahydro-1H-pyrazolo[4,3-c]pyridin-1-yl)methyl)bicyclo[2.2.2]octan-1-yl)-2,6-dimethylmorpholine] | 39 nM
Cc1cc(N2CCc3c(c(C)nn3CC34CCC(NCC5CCC5)(CC3)CO4)C2)c2cnn(C)c2n1 [compound 112, N-(cyclobutylmethyl)-1-((5-(1,6-dimethyl-1H-pyrazolo[3,4-b]pyridin-4-yl)-3-methyl-4,5,6,7-tetrahydro-1H-pyrazolo[4,3-c]pyridin-1-yl)methyl)-2-oxabicyclo[2.2.2]octan-4-amine] | 56 nM
Cc1cc(N2CCc3c(c(C)nn3CC34CCC(N5C[C@@H](C)O[C@H](C)C5)(CC3)CC4)C2)c2cnn(C)c2n1 [compound 113, (2R,6R)-4-(4-((5-(1,6-dimethyl-1H-pyrazolo[3,4-b]pyridin-4-yl)-3-methyl-4,5,6,7-tetrahydro-1H-pyrazolo[4,3-c]pyridin-1-yl)methyl)bicyclo[2.2.2]octan-1-yl)-2,6-dimethylmorpholine] | 16 nM
CCNCC(=O)NC12CCC(Cn3nc(C)c4c3CCN(c3cc(C)nc5c3cnn5C)C4)(CC1)CC2 [compound 114, N-(4-((5-(1,6-dimethyl-1H-pyrazolo[3,4-b]pyridin-4-yl)-3-methyl-4,5,6,7-tetrahydro-1H-pyrazolo[4,3-c]pyridin-1-yl)methyl)bicyclo[2.2.2]octan-1-yl)-2-(ethylamino)acetamide] | 15 nM
Cc1cc(N2CCc3c(c(C)nn3CC34CCC(NC(=O)CCN)(CC3)CC4)C2)c2cnn(C)c2n1 [compound 115, 3-amino-N-(4-((5-(1,6-dimethyl-1H-pyrazolo[3,4-b]pyridin-4-yl)-3-methyl-4,5,6,7-tetrahydro-1H-pyrazolo[4,3-c]pyridin-1-yl)methyl)bicyclo[2.2.2]octan-1-yl)propanamide] | 245 nM
Cc1cc(N2CCc3c(c(C)nn3CC34CCC(N5CC6(COC6)C5)(CC3)CC4)C2)c2cnn(C)c2n1 [compound 116, 6-(4-((5-(1,6-dimethyl-1H-pyrazolo[3,4-b]pyridin-4-yl)-3-methyl-4,5,6,7-tetrahydro-1H-pyrazolo[4,3-c]pyridin-1-yl)methyl)bicyclo[2.2.2]octan-1-yl)-2-oxa-6-azaspiro[3.3]heptane] | 68 nM
CN[C@H](C)C(=O)NC12CCC(Cn3nc(C)c4c3CCN(c3cc(C)nc5c3cnn5C)C4)(CC1)CC2 [compound 117, (R)-N-(4-((5-(1,6-dimethyl-1H-pyrazolo[3,4-b]pyridin-4-yl)-3-methyl-4,5,6,7-tetrahydro-1H-pyrazolo[4,3-c]pyridin-1-yl)methyl)bicyclo[2.2.2]octan-1-yl)-2-(methylamino)propanamide] | 236 nM
CN[C@@H](C)C(=O)NC12CCC(Cn3nc(C)c4c3CCN(c3cc(C)nc5c3cnn5C)C4)(CC1)CC2 [compound 118] | 197 nM
CNCC(=O)NC12CCC(Cn3nc(C)c4c3CCN(c3cc(C)nc5c3cnn5C)C4)(CC1)CC2 [compound 121, N-(4-((5-(1,6-dimethyl-1H-pyrazolo[3,4-b]pyridin-4-yl)-3-methyl-4,5,6,7-tetrahydro-1H-pyrazolo[4,3-c]pyridin-1-yl)methyl)bicyclo[2.2.2]octan-1-yl)-2-(methylamino)acetamide] | 39 nM
